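Compound exposure: 48 hours, 5 concentrations, 96-well plates. Abbreviation: GI50, concentration required for 50% inhibition of growth.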 Active and inactive are the calls of the source. Rule as the data show it: active = GI50 up to about 1.1 µM and inactive = higher.
What was measured:
Assay in all cases: growth of human tumour cells (NCI), 48 h
A498 = tested on: A498
ACHN = tested on: ACHN
CCRF-CEM = tested on: CCRF-CEM
COLO 205 = tested on: COLO 205
HL-60 = tested on: HL-60
HT-29 = tested on: HT-29
K562 = tested on: K562
LOX IMVI = tested on: LOX IMVI
M14 = tested on: M14
NCI-H23 = tested on: NCI-H23
OVCAR-8 = tested on: OVCAR-8
SF-539 = tested on: SF-539
SK-MEL-2 = tested on: SK-MEL-2
SK-MEL-5 = tested on: SK-MEL-5
SW-620 = tested on: SW-620
TK-10 = tested on: TK-10
UACC-257 = tested on: UACC-257
UACC-62 = tested on: UACC-62
RXF 393 = tested on: RXF 393

Measured: GI50

CCOC(=O)/C(=C/c1ccco1)P(=O)(OCC)OCC
inactive: A498 > 100 µM | ACHN > 100 µM | CCRF-CEM > 100 µM | COLO 205 > 100 µM | HL-60 > 100 µM | HT-29 > 100 µM | K562 > 100 µM | LOX IMVI > 100 µM | M14 > 100 µM | NCI-H23 > 100 µM | OVCAR-8 > 100 µM | SF-539 > 100 µM | SK-MEL-2 > 100 µM | SK-MEL-5 > 100 µM | SW-620 > 100 µM | TK-10 > 100 µM | UACC-257 > 100 µM | UACC-62 > 100 µM

CC(=O)c1ccc(OCC(O)CO)cc1 (stereo not given)
inactive: A498 > 100 µM | ACHN > 100 µM | CCRF-CEM > 100 µM | COLO 205 35.6 µM | HL-60 > 100 µM | HT-29 61.4 µM | K562 61.9 µM | M14 > 100 µM | NCI-H23 > 100 µM | OVCAR-8 > 100 µM | SF-539 > 100 µM | SK-MEL-5 > 100 µM | SW-620 14.9 µM | TK-10 > 100 µM | UACC-257 > 100 µM | UACC-62 > 100 µM

NCc1ccccc1C1CSCSC1
inactive: ACHN > 100 µM | CCRF-CEM > 100 µM | HL-60 > 100 µM | HT-29 > 100 µM | K562 > 100 µM | LOX IMVI > 100 µM | NCI-H23 > 100 µM | OVCAR-8 > 100 µM | RXF 393 39.8 µM | SF-539 > 100 µM | SK-MEL-2 > 100 µM | SK-MEL-5 > 100 µM | SW-620 > 100 µM | TK-10 > 100 µM | UACC-257 > 100 µM | UACC-62 > 100 µM

CCOC(=O)[N-]c1ccc(S(=O)(=O)[O+](C)CCl)cc1.CCOC(=O)[N-]c1ccc(S(=O)(=O)[O+](C)CCl)cc1.NC(=O)N=O.NC(=O)OCCCl
inactive: A498 > 100 µM | CCRF-CEM > 100 µM | COLO 205 > 100 µM | HL-60 > 100 µM | HT-29 > 100 µM | K562 > 100 µM | LOX IMVI > 100 µM | M14 > 100 µM | NCI-H23 > 100 µM | OVCAR-8 > 100 µM | SF-539 > 100 µM | SK-MEL-2 > 100 µM | SW-620 > 100 µM | TK-10 > 100 µM | UACC-257 > 100 µM | UACC-62 > 100 µM

Nc1ccc(N)c2c1C(=O)c1ccccc1C2=O
inactive: A498 7.35 µM | ACHN 4.66 µM | CCRF-CEM 32.1 µM | COLO 205 17.8 µM | HT-29 57.9 µM | K562 27.6 µM | LOX IMVI 9.02 µM | M14 17.7 µM | NCI-H23 17.7 µM | OVCAR-8 76.2 µM | SF-539 34.4 µM | SK-MEL-2 79.1 µM | SK-MEL-5 15.8 µM | SW-620 32.7 µM | TK-10 4.08 µM | UACC-257 > 100 µM | UACC-62 15.7 µM

CCOc1ccccc1NC(=O)CCc1nnc(S)[nH]1
inactive: ACHN > 100 µM | CCRF-CEM > 100 µM | COLO 205 > 100 µM | HL-60 > 100 µM | HT-29 > 100 µM | K562 > 100 µM | LOX IMVI > 100 µM | M14 > 100 µM | NCI-H23 > 100 µM | OVCAR-8 > 100 µM | RXF 393 > 100 µM | SF-539 > 100 µM | SK-MEL-2 > 100 µM | SK-MEL-5 > 100 µM | SW-620 > 100 µM | TK-10 > 100 µM | UACC-257 > 100 µM | UACC-62 > 100 µM

CCCCCCCCOCC(O)COC(=O)CCCCCCC (stereo not given)
inactive: A498 > 100 µM | ACHN > 100 µM | CCRF-CEM 12.1 µM | COLO 205 79.3 µM | HL-60 32.4 µM | HT-29 > 100 µM | K562 31.2 µM | LOX IMVI > 100 µM | M14 > 100 µM | NCI-H23 53.6 µM | OVCAR-8 > 100 µM | SK-MEL-5 > 100 µM | SW-620 > 100 µM | TK-10 > 100 µM | UACC-257 51.3 µM | UACC-62 50.8 µM

CCOC(=O)C12CCC(=O)C=C1[C@@H](C)C(=O)CC2 (stereo not given in full)
inactive: ACHN > 100 µM | COLO 205 > 100 µM | HL-60 > 100 µM | HT-29 > 100 µM | LOX IMVI > 100 µM | M14 > 100 µM | NCI-H23 > 100 µM | OVCAR-8 > 100 µM | RXF 393 > 100 µM | SK-MEL-2 > 100 µM | SK-MEL-5 > 100 µM | SW-620 > 100 µM | TK-10 > 100 µM | UACC-257 > 100 µM | UACC-62 > 100 µM

Cc1cc(O)c(C(=O)CC2(O)C(=O)Nc3c(Cl)cc(Cl)cc32)c(=O)o1 (stereo not given)
inactive: A498 > 100 µM | ACHN > 100 µM | CCRF-CEM 63 µM | COLO 205 > 100 µM | HL-60 > 100 µM | HT-29 > 100 µM | K562 > 100 µM | M14 > 100 µM | NCI-H23 > 100 µM | OVCAR-8 > 100 µM | SF-539 61.1 µM | SK-MEL-2 > 100 µM | SK-MEL-5 > 100 µM | SW-620 52.1 µM | TK-10 > 100 µM | UACC-257 > 100 µM | UACC-62 > 100 µM

COC(=O)C(CC(=O)c1cc2c(cc1I)OCO2)Cc1cc(OC)c(OC)c(OC)c1I (stereo not given)
inactive: ACHN 80.4 µM | CCRF-CEM > 100 µM | COLO 205 > 100 µM | HL-60 16.7 µM | HT-29 > 100 µM | K562 > 100 µM | LOX IMVI > 100 µM | NCI-H23 45.6 µM | OVCAR-8 > 100 µM | RXF 393 73.5 µM | SF-539 > 100 µM | SK-MEL-2 > 100 µM | SK-MEL-5 13.6 µM | SW-620 > 100 µM | TK-10 > 100 µM | UACC-257 16.4 µM | UACC-62 37.2 µM

Cc1nc2c(n1-c1ccccc1)C(=O)c1ccccc1C2=O
inactive: A498 > 100 µM | ACHN 56.9 µM | CCRF-CEM 32.1 µM | HL-60 14.7 µM | HT-29 32.7 µM | K562 32.2 µM | M14 42 µM | NCI-H23 22.4 µM | OVCAR-8 42.4 µM | RXF 393 75.2 µM | SF-539 41.7 µM | SK-MEL-2 > 100 µM | SK-MEL-5 25.8 µM | SW-620 35.5 µM | TK-10 > 100 µM | UACC-257 22.4 µM | UACC-62 23.4 µM

Cc1nc(O)nc2c1C(NCCCN(C)C)c1cc(Cl)ccc1N2 (stereo not given)
inactive: ACHN 16.6 µM | CCRF-CEM 15.1 µM | COLO 205 13.2 µM | HL-60 14 µM | HT-29 10.4 µM | K562 8.61 µM | LOX IMVI 11.9 µM | M14 9.59 µM | NCI-H23 17.5 µM | OVCAR-8 15.3 µM | RXF 393 13.6 µM | SF-539 13.5 µM | SK-MEL-2 17.4 µM | SW-620 15.2 µM | TK-10 16.8 µM | UACC-257 13.2 µM | UACC-62 13.4 µM

COC(=O)CC(=O)OSc1ccccc1
inactive: A498 17.3 µM | ACHN 18.2 µM | CCRF-CEM 3.76 µM | COLO 205 19.5 µM | K562 35.2 µM | LOX IMVI 12.6 µM | M14 17.6 µM | NCI-H23 24.7 µM | RXF 393 10.4 µM | SF-539 12.3 µM | SK-MEL-2 34.6 µM | SK-MEL-5 22.3 µM | SW-620 18.1 µM | TK-10 43 µM | UACC-257 25.4 µM | UACC-62 14.9 µM

Cc1cccc(C)c1NC(=O)CCc1nnc(S)[nH]1
inactive: A498 > 100 µM | ACHN > 100 µM | CCRF-CEM > 100 µM | COLO 205 > 100 µM | HL-60 > 100 µM | K562 > 100 µM | LOX IMVI > 100 µM | M14 > 100 µM | NCI-H23 > 100 µM | OVCAR-8 > 100 µM | RXF 393 > 100 µM | SF-539 > 100 µM | SK-MEL-2 > 100 µM | SW-620 > 100 µM | TK-10 > 100 µM | UACC-62 > 100 µM

O=C(CC1(O)C(=O)Nc2ccccc21)c1ccc2ccccc2c1 (stereo not given)
inactive: A498 > 100 µM | ACHN > 100 µM | COLO 205 > 100 µM | HL-60 > 100 µM | HT-29 > 100 µM | K562 > 100 µM | LOX IMVI > 100 µM | M14 > 100 µM | NCI-H23 > 100 µM | OVCAR-8 > 100 µM | RXF 393 > 100 µM | SF-539 > 100 µM | SK-MEL-2 > 100 µM | SK-MEL-5 > 100 µM | SW-620 > 100 µM | TK-10 > 100 µM | UACC-257 > 100 µM | UACC-62 > 100 µM

O=C1c2ccccc2C2(O)NC(=S)N(c3ccccc3)C12O (stereo not given)
inactive: CCRF-CEM > 100 µM | COLO 205 > 100 µM | HL-60 > 100 µM | HT-29 > 100 µM | K562 > 100 µM | LOX IMVI > 100 µM | M14 > 100 µM | NCI-H23 > 100 µM | OVCAR-8 > 100 µM | SF-539 > 100 µM | SK-MEL-2 > 100 µM | SW-620 > 100 µM | TK-10 > 100 µM | UACC-257 > 100 µM | UACC-62 > 100 µM
